*1 amine or outer side, *2 acyl side, *3 side chain or, on linkers, in order; H or OH if unused. Where a SMILES comes first, the peptide text is derived from it. Side-chain parts run from the residue outwards. [ ]: non-standard residue; d: D form. The star is where a group is joined. γGlu = O=C(O)[C@H](CCC(=O)[*:2])N[*:1]; Desaminohistidyl = O=C(CCc1c[nH]cn1)*; Aib = CC(C)(N)C(=O)O
Assays:
[1] = target: T1, human glucagon receptor (Homo sapiens, UniProt P47871); assay: Assay (I)(b): glucagon receptor activation, CRE luciferase reporter gene assay in BHK cells; format: cell-based; conditions: BHK cells expressing human glucagon receptor and CRE luciferase, 3 h incubation; read-out: EC50 hGlucagonR
T1 construct: expressed in transfected cells; host or cells: BHK cells, clone BHK hGCGR A3*25; isolated membranes
Protocol: The purpose of this assay is to test the activity, or potency, of the derivatives of the invention, in vitro. The in vitro potency is the measure of human GLP-1 receptor and/or glucagon receptor activation, respectively, in a whole cell assay.
In vitro potency was determined by measuring the response of human GLP-1 or glucagon receptor, respectively, in a reporter gene assay. The assay was performed in a stably transfected BHK cell line that expressed either the human GLP-1 receptor or the human glucagon receptor and contained the DNA for the cAMP response element (CRE) coupled to a promoter and the gene for firefly luciferase (CRE luciferase). […] When assay incubation was completed, the luciferase substrate (luciferin) was added and the enzyme converted luciferin to oxyluciferin and produced bioluminescence. The luminescence was measured as the readout for the assay.
(b) Glucagon Receptor Activation
The cells used in this assay (clone pLJ6′-4-25) were BHK cells with BHK570 as a parent cell line expressing the CRE luciferase gene (clone BHK/KZ10-20-48) and were established by further transfection with the human glucagon receptor (clone pLJ6′ in pHZ-1 vector).
The cells were cultured at 5% CO2 in DMEM medium with 10% FBS, 1× GlutaMAX, 1 mg/mL G418, 240 nM MTX (methotrexate) and 1% pen/strep (penicillin/streptomycin). They were aliquoted and stored in liquid nitrogen. Before each assay, an aliquot was taken up and washed three times in PBS before being suspended at the desired concentration in assay buffer. For 96-well plates the suspension was made to give a final concentration of 5×10 EE3 cells/well.
Assay Medium consisted of DMEM w/o phenol red, 10 mM Hepes, lx GlutaMAX, 2% Ovalbumin and 0.2% Pluronic F-68.
Cell stocks were thawed in a 37° C. water bath. Cells were washed three times in PBS. The cells were counted and adjusted to 5×10 EE3 cells/50 μl (1×10 EE5 cells/mL) in Assay Medium. A 50 μl aliquot of cells was transferred to each well in the assay plate.
Stocks of the test compounds and reference compounds were diluted to a concentration of […] in Assay Medium. Compounds were diluted 10-fold to give the following concentrations: […], 2×10 EE-7 M, 2×10 EE-8 M; 2×10 EE-9 M, 2×10 EE-10 M, 2×10 EE-11 M, 2×10 EE-12 M and 2×10 EE-13 M. For each compound a blank assay buffer control was also included.
A 50 μl aliquot of compound or blank was transferred from the dilution plate to the assay plate. Compounds were tested at the following final concentrations: 1×10 EE-6 M, 1×10 EE-7 M, 1×10 EE-8 M; 1×10 EE-9 M, 1×10 EE-10 M, 1×10 EE-11 M and 1×10 EE-12 M and 1×10 EE-13 M.
The assay plate was incubated for 3 h in a 5% CO2 incubator at 37° C. The assay plate was removed from the incubator and allowed to stand at room temperature for 15 min. A 100 μl aliquot of steadylite plus reagent was added to each well of the assay plate (reagent is light sensitive). Each assay plate was covered with aluminum foil to protect it from light and shaken for 30 min at room temperature. Each assay plate was read in a Packard TopCount NXT instrument.
The data from the TopCount instrument was transferred to GraphPad Prism software. The software performed a non-linear regression (log(agonist) vs response-Variable slope (four parameter)). EC50 values were calculated by the software and reported in pM.

[2] = physchem; format: physicochemical; conditions: pH 7.5
Outline: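 Peptide at 250 μM in 10 mM HEPES pH 7.5 with 1 μM Thioflavin T, incubated at 37° C with 960 rpm orbital shaking. ThT fluorescence (ex 444/em 485 nm) read every 20 min; lag-time (t0−2τ) and kapp (1/τ) from curve fit. Recovery is post-assay supernatant peptide by RP-HPLC as % of initial.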

T1 sequence (P47871 26-477): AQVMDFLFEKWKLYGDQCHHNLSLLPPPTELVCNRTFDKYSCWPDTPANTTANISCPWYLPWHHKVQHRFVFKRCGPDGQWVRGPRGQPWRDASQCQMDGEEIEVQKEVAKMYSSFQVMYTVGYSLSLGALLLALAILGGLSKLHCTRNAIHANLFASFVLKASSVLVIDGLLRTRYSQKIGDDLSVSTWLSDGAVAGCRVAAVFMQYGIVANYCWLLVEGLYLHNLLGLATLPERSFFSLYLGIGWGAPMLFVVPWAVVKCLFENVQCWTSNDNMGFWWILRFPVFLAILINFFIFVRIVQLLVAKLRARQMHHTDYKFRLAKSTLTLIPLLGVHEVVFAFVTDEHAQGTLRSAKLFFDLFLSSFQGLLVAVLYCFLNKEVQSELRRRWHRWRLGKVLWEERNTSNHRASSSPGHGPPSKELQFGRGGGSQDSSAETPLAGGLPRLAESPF

Row | Compound | EC50 [1] [pM] | recovery at 250 μM [2] [%]
1 | CC(=O)N[C@@H](CCC(=O)N[C@@H](CCC(=O)N[C@@H](CCC(=O)N[C@@H](CCC(=O)NCCCC[C@H](NC(=O)[C@H](CO)NC(=O)[C@H](CC(C)C)NC(=O)[C@H](CC(C)C)NC(=O)[C@H](Cc1c[nH]c2ccccc12)NC(=O)[C@H](CCC(N)=O)NC(=O)[C@@H](NC(=O)[C@H](Cc1ccccc1)NC(=O)[C@H](CCC(=O)O)NC(=O)[C@H](CCC(N)=O)NC(=O)[C@H](C)NC(=O)[C@H](CCCNC(=N)N)NC(=O)[C@H](CCCNC(=N)N)NC(=O)[C@H](CO)NC(=O)[C@H](CCC(=O)O)NC(=O)[C@H](CC(C)C)NC(=O)[C@H](Cc1ccc(O)cc1)NC(=O)[C@H](CCCCN)NC(=O)[C@H](CO)NC(=O)[C@H](Cc1ccc(O)cc1)NC(=O)[C@H](CC(=O)O)NC(=O)[C@H](CO)NC(=O)[C@@H](NC(=O)[C@H](Cc1ccccc1)NC(=O)[C@@H](NC(=O)CNC(=O)[C@H](Cc1c[nH]cn1)NC(=O)[C@H](CO)NC(=O)CCc1c[nH]cn1)[C@@H](C)O)[C@@H](C)O)C(C)C)C(=O)O)C(=O)O)C(=O)O)C(=O)O)C(=O)O [Example 15, N^ϵ29-[(4S)-4-[[(4S)-4-[[(4S)-4-[[(4S)-4-acetamido-4-carboxybutanoyl]amino]-4-carboxybutanoyl]amino]-4-carboxybutanoyl]amino]-4-carboxybutanoyl]-[Imp1, His3, Glu15, Glu21, Leu27, Ser28, Lys29]-Glucagon] (Desaminohistidyl-SHGTFTSDYSKYLESRRAQEFVQWLLSK([γGlu-γGlu-γGlu-γGlu-Ac])-OH) | 4 | 88
2 | CC(=O)N[C@@H](CCC(=O)N[C@@H](CCC(=O)N[C@@H](CCC(=O)N[C@@H](CCC(=O)NCCCC[C@H](NC(=O)[C@@H](NC(=O)[C@H](Cc1ccccc1)NC(=O)[C@H](CC(=O)O)NC(=O)[C@H](CCC(N)=O)NC(=O)[C@H](C)NC(=O)[C@H](CCCNC(=N)N)NC(=O)[C@H](CCCNC(=N)N)NC(=O)C(C)(C)NC(=O)[C@H](CC(=O)O)NC(=O)[C@H](CC(C)C)NC(=O)[C@H](Cc1ccc(O)cc1)NC(=O)[C@H](CCCCN)NC(=O)[C@H](CO)NC(=O)[C@H](Cc1ccc(O)cc1)NC(=O)[C@H](CC(=O)O)NC(=O)[C@H](CO)NC(=O)[C@@H](NC(=O)[C@H](Cc1ccccc1)NC(=O)[C@@H](NC(=O)CNC(=O)[C@H](Cc1c[nH]cn1)NC(=O)[C@H](CO)NC(=O)CCc1c[nH]cn1)[C@@H](C)O)[C@@H](C)O)C(C)C)C(=O)N[C@@H](Cc1c[nH]c2ccccc12)C(=O)N[C@@H](CC(C)C)C(=O)N[C@@H](CC(C)C)C(=O)N[C@@H](CO)C(=O)N[C@H](C(=O)O)[C@@H](C)O)C(=O)O)C(=O)O)C(=O)O)C(=O)O [Example 21, N^ϵ24-[(4S)-4-[[(4S)-4-[[(4S)-4-[[(4S)-4-acetamido-4-carboxybutanoyl]amino]-4-carboxybutanoyl]amino]-4-carboxybutanoyl]amino]-4-carboxybutanoyl]-[Imp1, His3, Aib16, Lys24, Leu27, Ser28]-Glucagon] (Desaminohistidyl-SHGTFTSDYSKYLD[Aib]RRAQDFVK([γGlu-γGlu-γGlu-γGlu-Ac])WLLST-OH) | 2 | 104
3 | CC(=O)N[C@@H](CCC(=O)N[C@@H](CCC(=O)N[C@@H](CCC(=O)N[C@@H](CCC(=O)NCCCC[C@H](NC(=O)[C@H](CCC(N)=O)NC(=O)[C@H](C)NC(=O)[C@H](CCCNC(=N)N)NC(=O)[C@H](CCCNC(=N)N)NC(=O)[C@H](CO)NC(=O)[C@H](CCC(=O)O)NC(=O)[C@H](CC(C)C)NC(=O)[C@H](Cc1ccc(O)cc1)NC(=O)[C@H](CCCCN)NC(=O)[C@H](CO)NC(=O)[C@H](Cc1ccc(O)cc1)NC(=O)[C@H](CC(=O)O)NC(=O)[C@H](CO)NC(=O)[C@@H](NC(=O)[C@H](Cc1ccccc1)NC(=O)[C@@H](NC(=O)CNC(=O)[C@H](Cc1c[nH]cn1)NC(=O)[C@H](CO)NC(=O)CCc1c[nH]cn1)[C@@H](C)O)[C@@H](C)O)C(=O)N[C@@H](Cc1ccccc1)C(=O)N[C@H](C(=O)N[C@@H](CCC(N)=O)C(=O)N[C@@H](Cc1c[nH]c2ccccc12)C(=O)N[C@@H](CC(C)C)C(=O)N[C@@H](CC(C)C)C(=O)N[C@@H](CO)C(=O)N[C@H](C(=O)O)[C@@H](C)O)C(C)C)C(=O)O)C(=O)O)C(=O)O)C(=O)O [Example 13, Nϵ^21-[(4S)-4-[[(4S)-4-[[(4S)-4-[[(4S)-4-acetamido-4-carboxybutanoyl]amino]-4-carboxybutanoyl]amino]-4-carboxybutanoyl]amino]-4-carboxybutanoyl]-[Imp1, His3, Glu15, Lys21, Leu27, Ser28]-Glucagon] (Desaminohistidyl-SHGTFTSDYSKYLESRRAQK([γGlu-γGlu-γGlu-γGlu-Ac])FVQWLLST-OH) | 17 | 39
4 | CC(=O)N[C@@H](CCC(=O)N[C@@H](CCC(=O)N[C@@H](CCC(=O)N[C@@H](CCC(=O)NCCCC[C@H](NC(=O)[C@@H](NC(=O)[C@H](Cc1ccccc1)NC(=O)[C@H](CCC(=O)O)NC(=O)[C@H](CCC(N)=O)NC(=O)[C@H](C)NC(=O)[C@H](CCCNC(=N)N)NC(=O)[C@H](CCCNC(=N)N)NC(=O)[C@H](CO)NC(=O)[C@H](CCC(=O)O)NC(=O)[C@H](CC(C)C)NC(=O)[C@H](Cc1ccc(O)cc1)NC(=O)[C@H](CCCCN)NC(=O)[C@H](CO)NC(=O)[C@H](Cc1ccc(O)cc1)NC(=O)[C@H](CC(=O)O)NC(=O)[C@H](CO)NC(=O)[C@@H](NC(=O)[C@H](Cc1ccccc1)NC(=O)[C@@H](NC(=O)CNC(=O)[C@H](Cc1c[nH]cn1)NC(=O)C(C)(C)NC(=O)CCc1c[nH]cn1)[C@@H](C)O)[C@@H](C)O)C(C)C)C(=O)N[C@@H](Cc1c[nH]c2ccccc12)C(=O)N[C@@H](CC(C)C)C(=O)N[C@@H](CC(C)C)C(=O)N[C@@H](CO)C(=O)N[C@H](C(=O)O)[C@@H](C)O)C(=O)O)C(=O)O)C(=O)O)C(=O)O [Example 7, N^ϵ24-[(4S)-4-[[(4S)-4-[[(4S)-4-[[(4S)-4-acetamido-4-carboxybutanoyl]amino]-4-carboxybutanoyl]amino]-4-carboxybutanoyl]amino]-4-carboxybutanoyl]-[Imp1, Aib2, His3, Glu15, Glu21, Lys24, Leu27, Ser28]-Glucagon] (Desaminohistidyl-[Aib]HGTFTSDYSKYLESRRAQEFVK([γGlu-γGlu-γGlu-γGlu-Ac])WLLST-OH) | 2 | 100

Reference: US9963496B2, “Stable glucagon analogues and use for treatment of hypoglycaemia” (Novo Nordisk A/S, priority 2014, dated 2018)
